The subject of this test is HBV. The experiment in a line: HBV infection in HepG2-NTCP cells (HBeAg AlphaLISA in supernatants). It counts as cell-based. The conditions noted are these: HBV infection of HepG2-NTCP cells, HBeAg in supernatants at day 8 post infection, read-out: Cellular EC50. In short, it runs like this: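 Readout was day-8 supernatant HBeAg by AlphaLISA, with EC50 set against DMSO controls and binned A<0.1 μM, B 0.1-1 μM, C>1 μM. Compounds were added 2 h before HBV (2000 GE/cell, 4% PEG, 0.5% DMSO) to HepG2-NTCP A3 cells; from day 1 medium held 2.5% DMSO.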
(Bead proximity is the source of the signal in Alpha formats.)

Each structure is given as a SMILES string. Where two headings read alike, the source gives them in different places.

What is called EC50 is the midpoint of the concentration-response curve. Turning to `CN1[C@H](CCc2ccccc2)CN(c2ccccc2)c2cc(Cl)c(-c3ccc(F)c(C(=O)O)c3)cc2S1(=O)=O` [Example 53], the EC50 (Hepatitis B virus, 192 h) was over 1000 nM.

With `CC(C)C[C@@H]1CN(c2ccccc2)c2cc(OC3CCN(C)CC3)c(-c3ccc(F)c(C(=O)O)c3)cc2S(=O)(=O)N1C` [Example 448], the EC50 (Hepatitis B virus, 192 h) was over 1000 nM.

As to `CN1[C@H](C2CCCCC2)CN(CC2CC2)c2cc(Cl)c(-c3ccc(F)c(C(=O)O)c3)cc2S1(=O)=O` [Example 319, (R)-5-(7-chloro-3-cyclohexyl-5-(cyclopropylmethyl)-2-methyl-1,1-dioxido-2,3,4,5-tetrahydrobenzo[f][1,2,5]thiadiazepin-8-yl)-2-fluorobenzoic acid], the EC50 (Hepatitis B virus, 192 h) fell in the range of 100 to 1000 nM.

Regarding `CN1[C@H](C2CCCCC2)CN(c2ccccc2)c2cc(Cl)c(-c3cc(NC(=O)OC4CC4)c(C(=O)O)s3)cc2S1(=O)=O` [Example 249], the EC50 (Hepatitis B virus, 192 h) is under 100 nM.

In the case of `COCCOc1cc2c(cc1-c1cc(NC(=O)OC(C)(C)C)c(C(=O)O)s1)S(=O)(=O)N(C)[C@H](C1CCCCC1)CN2c1ccccc1` [Example 515, (R)-3-((tert-butoxycarbonyl)amino)-5-(3-cyclohexyl-7-(2-methoxyethoxy)-2-methyl-1,1-dioxido-5-phenyl-2,3,4,5-tetrahydrobenzo[f][1,2,5]thiadiazepin-8-yl)thiophene-2-carboxylic acid], for the setting “Hepatitis B virus, 192 h”, the EC50 was under 100 nM.

For `CN1[C@H](CN2CCCC(F)(F)C2)CN(c2ccccc2)c2cc(Cl)c(-c3ccc(F)c(C(=O)O)c3)cc2S1(=O)=O` [Example 112], where the note is “Hepatitis B virus, 192 h”, the concentration for a half-maximal effect (EC50) was over 1000 nM.

On to `CCCC[C@@H]1CN(c2ccccc2)c2cc(Oc3cccc(OC)c3)c(-c3ccc(F)c(C(=O)O)c3)cc2S(=O)(=O)N1C` [Example 420], for which the EC50 (Hepatitis B virus, 192 h) is 100 to 1000 nM.

Turning to `Cn1nc(-c2cc3c(cc2F)N(c2ccccc2)CC2CC4(CC4)CN2S3(=O)=O)cc1C(=O)O` (stereo not shown) [Example 8], the EC50 (Hepatitis B virus, 192 h) was over 1000 nM.

`CN1[C@H](C2CCCCC2)CN(c2ccccc2)c2cc(Cl)c(-c3cc(C(=O)O)cc(C(F)(F)F)c3)cc2S1(=O)=O` [Example 142, (R)-3-(7-chloro-3-cyclohexyl-2-methyl-1,1-dioxido-5-phenyl-2,3,4,5-tetrahydrobenzo[f][1,2,5]thiadiazepin-8-yl)-5-(trifluoromethyl)benzoic acid]: the EC50 (Hepatitis B virus, 192 h) was 100 to 1000 nM.

Take `CC(C)C[C@@H]1CN(c2ccccc2)c2cc(Cl)c(-c3ccc(C(F)(F)F)c(C(=O)O)c3)cc2S(=O)(=O)N1C` [Example 186]: where the note is “Hepatitis B virus, 192 h”, the EC50 was under 100 nM.

Take `CN1[C@H](C2CCC2)CN(c2ccccc2)c2cc(Cl)c(-c3ccc([N+](=O)[O-])c(C(=O)O)c3)cc2S1(=O)=O` [Example 203]: the EC50 (Hepatitis B virus, 192 h) was under 100 nM.

`CC(C)Oc1ccccc1COc1cc2c(cc1-c1cc(F)c(C(=O)O)s1)S(=O)(=O)N(C)[C@H](C1CCCCC1)CN2c1ccccc1` [Example 505]: where the note is “Hepatitis B virus, 192 h”, the EC50 is under 100 nM.

As for `CC(C)C[C@@H]1CN(C23CC(C2)C3)c2cc(Oc3ccccc3F)c(-c3ccc(F)c(C(=O)O)c3)cc2S(=O)(=O)N1C` [Example 469], for the setting “Hepatitis B virus, 192 h”, the EC50 is 100 to 1000 nM.

With `CN1[C@H](C2CCCCC2)CN(c2ccccc2)c2cc(Cl)c(-c3ncc(C(=O)O)o3)cc2S1(=O)=O` [Example 132, (R)-2-(7-chloro-3-cyclohexyl-2-methyl-1,1-dioxido-5-phenyl-2,3,4,5-tetrahydrobenzo[f][1,2,5]thiadiazepin-8-yl)oxazole-5-carboxylic acid], the EC50 (Hepatitis B virus, 192 h) was in the range of 100 to 1000 nM.

On to `CCCCOc1ccc(N2C[C@@H](C3CCCCC3)N(C)S(=O)(=O)c3cc(-c4ccc(F)c(C(=O)O)c4)c(Cl)cc32)cc1` [Example 311], for which the EC50 (Hepatitis B virus, 192 h) fell in the range of 100 to 1000 nM.

With `Cc1ccc(C(=O)O)c(C)c1-c1cc2c(cc1Cl)N(c1ccccc1)C[C@@H](C1CCCCC1)N(C)S2(=O)=O` [Example 147, 3-((3R)-7-chloro-3-cyclohexyl-2-methyl-1,1-dioxido-5-phenyl-2,3,4,5-tetrahydrobenzo[f][1,2,5]thiadiazepin-8-yl)-2,4-dimethylbenzoic acid], the EC50 was over 1000 nM.

Consider `COc1cc(F)cc(Oc2cc3c(cc2-c2ccc(F)c(C(=O)O)c2)S(=O)(=O)N(C)[C@H](C2CCCCC2)CN3c2ccccc2)c1` [Example 409], for which, under “Hepatitis B virus, 192 h”, the EC50 is under 100 nM.

Regarding `CN1[C@H](C2CCCCC2)CN(c2ccccc2)c2cc(Cl)c(-c3cc(C(=O)O)c4cn[nH]c4c3)cc2S1(=O)=O` [Example 208, (R)-6-(7-chloro-3-cyclohexyl-2-methyl-1,1-dioxido-5-phenyl-2,3,4,5-tetrahydrobenzo[f][1,2,5]thiadiazepin-8-yl)-1H-indazole-4-carboxylic acid], the EC50 (Hepatitis B virus, 192 h) was over 1000 nM.

Take `COCCN(C)c1cc2c(cc1-c1ccc(F)c(C(=O)O)c1)S(=O)(=O)N(C)[C@H](C1CCCCC1)CN2c1ccccc1` [Example 537]: the EC50 (Hepatitis B virus, 192 h) lay in the range of 100 to 1000 nM.

Regarding `CN1[C@H](C2CCCCC2)CN(c2ccccc2)c2cc(OC3CCN(C(=O)OC(C)(C)C)CC3)c(-c3ccc(F)c(C(=O)O)c3)cc2S1(=O)=O` [Example 393, (R)-5-(7-((1-(tert-butoxycarbonyl)piperidin-4-yl)oxy)-3-cyclohexyl-2-methyl-1,1-dioxido-5-phenyl-2,3,4,5-tetrahydrobenzo[f][1,2,5]thiadiazepin-8-yl)-2-fluorobenzoic acid], the EC50 (Hepatitis B virus, 192 h) was under 100 nM.

As for `CN1[C@H](C2CCCCC2)CN(c2ccccc2)c2cc(OC3CC4(CCC4)C3)c(-c3cc(F)c(C(=O)O)s3)cc2S1(=O)=O` [Example 484], the EC50 (Hepatitis B virus, 192 h) lay in the range of 100 to 1000 nM.

As to `CC(C)C[C@@H]1CN(c2ccccc2)c2cc(Nc3cccc(F)c3)c(-c3ccc(Cl)c(C(=O)O)c3)cc2S(=O)(=O)N1C` [Example 547], the half-maximal effective concentration (EC50) (Hepatitis B virus, 192 h) is 100 to 1000 nM.

As for `CN1[C@H](C2CCCCC2)CN(c2ccccc2)c2cc(O[C@H]3C[C@H](C#N)C3)c(-c3ccc(F)c(C(=O)O)c3)cc2S1(=O)=O` [Example 384], the EC50 (Hepatitis B virus, 192 h) was 100 to 1000 nM.

For `CN(C)c1cc2c(cc1-c1ccc(F)c(C(=O)O)c1)S(=O)(=O)N(C)[C@H](C1CCCCC1)CN2c1ccccc1` [Example 529], the EC50 (Hepatitis B virus, 192 h) is under 100 nM.

In the case of `CN1[C@H](C2CCCCC2)CN(c2ccccc2)c2cc(OCc3cscc3Cl)c(-c3cc(F)c(C(=O)O)s3)cc2S1(=O)=O` [Example 494], the EC50 (Hepatitis B virus, 192 h) is under 100 nM.

For `CN1[C@H](C2CCCCC2)CN(c2ccccc2)c2cc(Cl)c(-c3cc4c(c(C(=O)O)c3)OCO4)cc2S1(=O)=O` [Example 153, (R)-6-(7-chloro-3-cyclohexyl-2-methyl-1,1-dioxido-5-phenyl-2,3,4,5-tetrahydrobenzo[f][1,2,5]thiadiazepin-8-yl)benzo[d][1,3]dioxole-4-carboxylic acid], the EC50 (Hepatitis B virus, 192 h) was under 100 nM.

`CC(C)C[C@@H]1CN(c2ccccc2)c2cc(Cl)c(-c3ccc(Cl)c(C(N)=O)c3)cc2S(=O)(=O)N1C` [Example 166]: the EC50 (Hepatitis B virus, 192 h) is over 1000 nM.

Regarding `CN1[C@H](COC(C)(C)C)CN(c2ccccc2)c2cc(Cl)c(-c3ccc(F)c(C(=O)O)c3)cc2S1(=O)=O` [Example 101, (S)-5-(3-(tert-butoxymethyl)-7-chloro-2-methyl-1,1-dioxido-5-phenyl-2,3,4,5-tetrahydrobenzo[f][1,2,5]thiadiazepin-8-yl)-2-fluorobenzoic acid], the EC50 (Hepatitis B virus, 192 h) lay within 100 to 1000 nM.

Regarding `CCOc1ccc(-c2cc3c(cc2Cl)N(c2ccccc2)C[C@@H](C2CCCCC2)N(C)S3(=O)=O)cc1C(=O)O` [Example 155, (R)-5-(7-chloro-3-cyclohexyl-2-methyl-1,1-dioxido-5-phenyl-2,3,4,5-tetrahydrobenzo[f][1,2,5]thiadiazepin-8-yl)-2-ethoxybenzoic acid], the EC50 (Hepatitis B virus, 192 h) was 100 to 1000 nM.

Consider `CC(C)C[C@@H]1CN(c2ccccc2)c2cc(OC34CC5CC(CC(C5)C3)C4)c(-c3ccc(F)c(C(=O)O)c3)cc2S(=O)(=O)N1C` [Example 441], for which the EC50 (Hepatitis B virus, 192 h) is under 100 nM.

On to `C=CC[C@H]1CN(c2ccccc2)c2cc(Cl)c(-c3cccc(C(=O)O)c3)cc2S(=O)(=O)N1C` [Example 40], for which, under “Hepatitis B virus, 192 h”, the EC50 is over 1000 nM.

With `CCCOC(=O)Nc1cc(-c2cc3c(cc2Cl)N(c2ccccc2)C[C@@H](C2CCCCC2)N(C)S3(=O)=O)sc1C(=O)O` [Example 243], where the note is “Hepatitis B virus, 192 h”, the EC50 was under 100 nM.

Take `CC(C)Oc1cccc(COc2cc3c(cc2-c2cc(F)c(C(=O)O)s2)S(=O)(=O)N(C)[C@H](C2CCCCC2)CN3c2ccccc2)c1` [Example 506]: the EC50 (Hepatitis B virus, 192 h) was under 100 nM.

As to `CN1[C@H](C2CCOCC2)CN(c2ccccc2)c2cc(Cl)c(-c3ccc(F)c(C(=O)O)c3)cc2S1(=O)=O` [Example 105, (R)-5-(7-chloro-2-methyl-1,1-dioxido-5-phenyl-3-(tetrahydro-2H-pyran-4-yl)-2,3,4,5-tetrahydrobenzo[f][1,2,5]thiadiazepin-8-yl)-2-fluorobenzoic acid], the EC50 (Hepatitis B virus, 192 h) fell in the range of 100 to 1000 nM.

As for `Cc1ncc(N2C[C@@H](C3CCCCC3)N(C)S(=O)(=O)c3cc(-c4ccc(F)c(C(=O)O)c4)c(Cl)cc32)cn1` [Example 287], for the setting “Hepatitis B virus, 192 h”, the EC50 fell in the range of 100 to 1000 nM.

`CC(=O)NS(=O)(=O)c1cccc(-c2cc3c(cc2Cl)N(c2ccccc2)C[C@@H](CC(C)C)N(C)S3(=O)=O)c1` [Example 220, (R)—N-((3-(7-chloro-3-isobutyl-2-methyl-1,1-dioxido-5-phenyl-2,3,4,5-tetrahydrobenzo[f][1,2,5]thiadiazepin-8-yl)phenyl)sulfonyl)acetamide]: the concentration giving a half-maximal response (EC50) (Hepatitis B virus, 192 h) was 100 to 1000 nM.

Regarding `CCOC(=O)Nc1cc(-c2cc3c(cc2OCCOC)N(c2ccccc2)C[C@@H](C2CCCCC2)N(C)S3(=O)=O)sc1C(=O)O` [Example 517], the half-maximal effective concentration (EC50) (Hepatitis B virus, 192 h) was under 100 nM.

Turning to `CO[C@H]1CCN(c2cc3c(cc2-c2ccc(F)c(C(=O)O)c2)S(=O)(=O)N(C)[C@H](C2CCCCC2)CN3c2ccccc2)C1` [Example 532], the EC50 (Hepatitis B virus, 192 h) was under 100 nM.

Regarding `CN1[C@H](C2CCCCC2)CN(c2ccccc2)c2cc(Cl)c(-c3cc(NC(=O)OC4CCCC4)c(C(=O)O)s3)cc2S1(=O)=O` [Example 251], the EC50 (Hepatitis B virus, 192 h) is under 100 nM.

Take `COCCOc1cc2c(cc1-c1cc(NC(=O)OCC3CC(F)(F)C3)c(C(=O)O)s1)S(=O)(=O)N(C)[C@H](C1CCCCC1)CN2c1ccccc1` [Example 519]: the EC50 (Hepatitis B virus, 192 h) is under 100 nM.

The values are drawn from patent US20240368096A1 (Enanta Pharmaceuticals, Inc., priority 2022, published 2024).
